# Ends that are not written are not given here.
# Tests used:
# MDA-MB-231 cells [1] = experiment: Transwell migration and Matrigel invasion assays; type: cell-based, human; settings: treatment in lower well, 18 h
# From the text: (§1) In migration assay, MDA‐MB‐231 cells seeded in 8.0 μm pore polycarbonate membrane inserts (BD Biosciences) in 24‐well plates. In Matrigel invasion assay, inserts were pre‐coated with an appropriate amount of Matrigel first, and the same number of cells seeded on the Matrigel. After cells adhered on the inserts, serum‐free DMEM medium added in the upper wells. Serum‐free medium containing the treatments of TGF‐β1, PTX3, PTX3NA, PTX3/N, PTX3/C, RI37, GI40, AD9, GR9, IgG1κ, PTX3 Ab‐10 or PTX3 Ab‐49 were then mixed into the lower wells of the 24‐well plates. After incubating for 18 h, cells outside the insert were removed by wiping. The inside the inserts were then stained by 4′,6‐diamidino‐2‐phenylindol (DAPI). Fluorescence microscope was used for counting the total number of migrated cells with 200× magnification. Different from the experimental design for the MDA‐MB‐231 cells, the migrated 4T1‐Luc2 cells in the inside of the insert were detected by luciferase activity.
# CD44 [2] = molecular target: T1, CD44 (Homo sapiens, UniProt P16070); experiment: Surface plasmon resonance (BIAcore) of N-terminal CD44 on immobilised full-length PTX3; type: binding; settings: mean ± standard deviation
# From the text: The BIAcore 3000 system (GE Healthcare Co. Ltd.) was used to determine the direct protein interaction between the full‐length PTX3 (#1826‐TS; R&D Systems) and the N‐terminal of CD44 (#CD44‐3961H; Creative Biomart). Full‐length PTX3 was immobilised onto a CM5 sensor chip (GE Healthcare Co. Ltd.); the immobilisation level was 4000–6000 response units using amine‐coupling chemistry. Briefly, a mixture of 1‐Ethyl‐3‐(3‐dimethylaminopropyl) carbodiimide hydrochloride (EDC) and N‐hydroxysuccinimide activated the surface of the chip, and then diluted full‐length PTX3 (10 μg/ml in acetate buffer pH 3) was injected into the flow cells for immobilisation. Finally, the remaining activated groups were blocked by ethanolamine. The binding parameters of the experiment were measured over a 1‐min association phase and then followed by a 2‐min dissociation phase at a fluid flow rate of 10 μl/min. Phosphate‐buffered saline (PBS, pH 7.2) was used as the analyte running buffer; 0.05% sodium dodecyl sulphate was used to regenerate the chip surface before the next analyte concentration was applied. The 1:1 Langmuir binding model (BIAevaluation 4.1; GE Healthcare Co. Ltd.) were performed to calculate its corresponding association and dissociation rate constants to determine the affinity.
# Target sequence in this assay (P16070 32-120 limits assumed): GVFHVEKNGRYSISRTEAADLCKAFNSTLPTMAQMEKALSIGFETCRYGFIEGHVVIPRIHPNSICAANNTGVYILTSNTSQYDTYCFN
# CD44 [3] = molecular target: T1, CD44; experiment: Ligand binding ELISA on immobilised CD44; parameters: purchased Sino Biological Inc. 12211-H08H; settings: wells coated with 10 μg/ml CD44, 2 h, OD 450 nm; for binding to immobilised CD44: HRP-conjugated recombinant proteins; for CD44 binding activity of peptides: biotinylated peptides, modified peptides compared with parental peptides
# Description: Plate wells (9018; Corning Costar) were coated with 10 μg/ml of CD44 (12211‐H08H; Sino Biological Inc.) in PBS (pH 7.2) and then blocking for 1 h with the blocking buffer including 3% milk in PBS. For the stability binding experiments, the PTX3‐devired biotinylated peptides were pre‐incubated in serum for 1, 2, 4 or 6 h. For the binding experiments, the horseradish peroxidase (HRP)‐conjugated recombinant PTX3, PTX3/N, PTX3/C and PTX3NA or PTX3‐devired biotinylated peptides AD9, GR9, P2rdAD9 and P12rdGR9 (32310; LEADGENE) was responded in the well for 2 h. For the peptide of competition experiments, the PTX3‐devired biotinylated peptides RI37 and GI40 were diluted at the indicated concentration in PBS. After 2 h, PBS washed three times and then incubated with 5 μg/ml HRP‐conjugated PTX3 in PBS for 1 h at room temperature (RT). For the antibody competition experiments, Ab‐10 and Ab‐49 were incubated with 5 μg/ml HRP‐conjugated PTX3 in PBS for 2 h at RT. After incubation, the mixtures was responded in the well for 1 h at RT and then PBS washed three times, tetramethyl benzidine (TMB) was used to detect the bound HRP conjugate. After 15 min, the peroxidase reaction was stopped by adding 0.1 M H2SO4. Next, ELISA plate reader was used to detect the optical densities at 450 nm.
# Target sequence in this assay (P16070 21-220 limits assumed): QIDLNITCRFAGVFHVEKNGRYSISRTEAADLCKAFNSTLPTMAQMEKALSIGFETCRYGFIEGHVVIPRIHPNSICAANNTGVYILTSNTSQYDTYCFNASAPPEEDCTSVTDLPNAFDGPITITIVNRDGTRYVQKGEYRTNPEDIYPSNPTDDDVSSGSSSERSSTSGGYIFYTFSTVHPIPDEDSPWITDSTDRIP
# MDA-MB-231 cells [4] = experiment: Sphere formation assay; type: cell-based, human; settings: MDA-MB-231 cells treated with the recombinant protein
# Description: Note that 5 × 10^3 MDA‐MB‐231 cells were seeded in ultralow attachment plates (Corning) per well. Then, cultured in conditional medium containing the treatment of TGF‐β1, PTX3, PTX3NA, RI37, GI40, IgG1κ, PTX3 Ab‐10 or PTX3 Ab‐49 and the DMEM/F12 (Gibco) added with B27 (Invitrogen), 10 ng/ml bFGF (Peprotech) and 20 ng/ml EGF (Abcam). Number of spheres was calculated by microscope after 2 weeks.
# [5] = system: RANKL, MMP2, NANOG and TWIST2 transcription in MDA-MB-231 cells; experiment: Real-time quantitative PCR of PTX3-induced genes; type: cell-based, human; settings: wortmannin 100 nM, BAY 11-7085 2 μM, PD98059 10 μM; pre-treated 1 h, then PTX3 24 h
# From the text: TRIsure RNA extraction reagent (Invitrogen) extracted total RNA. SuperScript™ III Reverse Transcriptase (Invitrogen) was used to synthesis cDNA. Next, SensiFAST™ SYBR (BIOLINE) was applied to perform real‐time quantitative PCR (Q‐PCR) assay. CFX connect Real‐Time PCR System (BIO‐RAD) executed real‐time fluorescence monitoring and the melting curve analysis according to the manufacturer's recommendations. The following pairs of specific primers—human CEBPD (F): 5′‐[…]‐3′ and CEBPD (R): 5′‐[…]‐3′, human PTX3 (F): 5′‐ […]‐3′ and PTX3 (R): 5′‐ […]‐3′, human MMP2 (F): 5′‐ […]‐3′ and MMP2 (R): 5′‐ […]‐3′, human RANKL (F): 5′‐ AGAGC GCAGATGGATCCTAA‐3′ and RANKL (R): 5′‐ TTCCTTTTGCACAGC TCCTT‐3′, human TWIST2 (F): 5′‐[…]‐3′ and TWIST2 (R): 5′‐[…]‐3′, human NANOG (F): 5′‐[…]‐3′ and NANOG (R): 5′‐ […]‐3′, human GAPDH (F): 5′‐ […]‐3′ and GAPDH (R): 5′‐ […]‐3′.
# PTX3 = settings: read-out: KD for PTX3 binding; cited from earlier work
# From the text: However, knockdown of CD44 enhanced both JNK and p38 activity, implying that blockade of the PTX3/CD44 interaction positively compensates for JNK and p38 activity.
# 4T1-Luc2 cells = experiment: Transwell migration assay, luciferase read-out; type: cell-based, mouse; settings: single peptide, with PTX3 treatment
# From the text: as §1
# [6] = BIAcore 3000, full-length PTX3 amine-coupled to CM5 chip, N-terminal CD44 as analyte, PBS pH 7.2, 1:1 Langmuir model
compound,measurement,setting,value
pentraxin 3 [PTX3],"migration and invasion, protein alone",MDA-MB-231 cells [1],enhanced
same,"association rate constant, K on",CD44 [2]; [6],1.30 ± 0.32 × 10^2 M^–1 s^–1
same,"dissociation rate constant, K off",CD44 [2]; [6],2.43 ± 2.35 × 10^–6 s^–1
same,Kd,"CD44 [2]; N-terminal CD44 and full-length PTX3 binding, calculated from the rate constants, read-out: equilibrium dissociation constant, K D",21 ± 12 nM
same,binding to immobilised CD44,CD44 [3],could bind
same,"sphere formation, protein alone",MDA-MB-231 cells [4],promoted
"PTX3/N: recombinant truncated mutant, N‐terminus of PTX3, amino acids 19–182",binding to immobilised CD44,CD44 [3],not
COC[C@H]1OC(=O)c2coc3c2[C@@]1(C)C1=C(C3=O)[C@@H]2CCC(=O)[C@@]2(C)C[C@H]1OC(C)=O [wortmannin],"PTX3-induced RANKL, TWIST2, MMP2 and NANOG transcription with pathway inhibitors",[5],significantly hampered
"TSG‐6: secretory protein, CEBPD‐responsive gene product that interacts with PTX3",Kd,PTX3,314 to 648 nM
"GR9: peptide, PTX3 amino acids 352–360 (GGAESCHIR; also: biotin, position not given here)",PTX3-induced migration of 4T1-Luc2 cells,4T1-Luc2 cells,efficiently inhibited
same,CD44 binding activity of peptides,CD44 [3],significantly high binding activity
CC(C)(C)c1ccc(S(=O)(=O)/C=C/C#N)cc1 [BAY 11‐7085],"PTX3-induced RANKL, TWIST2, MMP2 and NANOG transcription with pathway inhibitors",[5],significantly hampered
"AD9: peptide, PTX3 amino acids 209–217 (ACIWVKATD; also: biotin, position not given here)",PTX3-induced migration of 4T1-Luc2 cells,4T1-Luc2 cells,efficiently inhibited
same,CD44 binding activity of peptides,CD44 [3],significantly high binding activity
COc1cccc(-c2cc(=O)c3ccccc3o2)c1N [PD98059],"PTX3-induced RANKL, TWIST2, MMP2 and NANOG transcription with pathway inhibitors",[5],significantly hampered

# Source: paper PMC8797470, “Disruption of the pentraxin 3/CD44 interaction as an efficient therapy for triple‐negative breast cancers” (Clinical and Translational Medicine, 2022)
